Assay results published in PubChem BioAssay AID2060507 (Molecular Pharmacology Branch, DTP, NCI, 2025).
Several values for one entry are separate records, joined by “and”; a condition that tells them apart may be missing. Identical values can stand only once.

System: 519858-162-T-J1-PDC complex spheroid viability
Assay: Anticancer human tumor 519858-162-T-J1-PDC patient-derived colon adenocarcinoma cell line growth inhibition [GQUAD]
Settings: for viability, T/C: stronger effect = lower value; active = viability on the fitted dose curve at most 10% of control; inactive = the rest
Description: DNA G-quadruplex Stabilizer Agents in Combinations in Complex Spheroids
A high-throughput screen of multi-cell type tumor spheroids was designed to identify active combinations of DNA G-quadruplex stabilizer agents and targeted small molecules. Complex spheroids include a stromal component modeled by human endothelial cells (HUVEC) and fibroblasts modeled by human mesenchymal stem cells (MSCs). The concentration ranges selected for each drug and investigational agent were based upon clinically achievable concentrations if the clinical Cmax of the agent was known.
Compounds. The drugs and investigational agents: pidnarulex (CX-5461; NSC782164), APTO-253 (NSC789042), BRACO-19 (NSC847499), peposertib (NSC802822), ceralasertib (NSC780249), elimusertib (NSC800525), camonsertib (NSC841442), AZD-1390 (NSC803789), olaparib (NSC753686), talazoparib (NSC767125), ART-558 (NSC835418), sotorasib (NSC818433), MRTX-1133 (NSC836407), SN-38 (NSC673596), topotecan (NSC609699), etoposide (NSC141540), doxorubicin (NSC123127), gemcitabine (NSC613327), 5-fluorouracil (NSC19893), paclitaxel (NSC125973), vemurafenib (NSC761431), panobinostat (NSC761190), R-306465 (JNJ-16241199; NSC773264), adavosertib (NSC754352), TP-3654 (NSC805149), carboplatin (NSC241240), KSQ-4279 (NSC840948), and staurosporine (NSC755774) were obtained from the National Cancer Institute (NCI) Developmental Therapeutics Program Chemical Repository (34). The FDA-approved anticancer drug set is available from the NCI Developmental Therapeutics Program. […] The stock solutions were prepared in dimethyl sulfoxide (DMSO, Sigma-Aldrich, St. Louis, MO, cat. D2650) at 800-fold the tested concentration and stored at -70 degrees C prior to their use. All drugs and investigational agents were tested over a range starting from a high concentration at or near the clinical Cmax and decreasing in half-log increments. If the clinical Cmax for an agent had not been determined, the highest concentration tested was 10 microM.
2.3 Cell Culture. All cells were maintained in an incubator at 37 degrees C and 5% CO2 with 95% humidity. The PDC lines were cultured according to standard operating procedures established by the NCI PDMR. All PDCs were thawed and cultured in Matrigel-coated flasks prepared with a working solution of 1X Ham's F-12 nutrient mix, without supplementation (Invitrogen, cat. 11765054), 100 U/mL penicillin-streptomycin (Invitrogen, cat. 15140122), and 2.5% Matrigel (Corning Inc., cat. 354248) for the first three passages. The 857933-349-R-J2-PDC line was cultured in 6C/Colon 1B media, which includes advanced DMEM/F-12 (Thermo Fisher Scientific, cat. 12634028), 10 mM HEPES (Thermo Fisher Scientific, cat. 15630080), 1X GlutaMAX supplement (Thermo Fisher Scientific, cat. 35050061), 0.1 mg/mL primocin (InvivoGen, cat. ant-pm-2), 10% defined fetal bovine serum, heat inactivated (HyClone Laboratories Inc., cat. SH30070.03HI), 50% L-WRN conditioned media (ATCC, cat. CRL-3276), 1.25 mM N-Acetyl-L-cysteine (Sigma-Aldrich, cat. A9165), 10 mM nicotinamide (Sigma-Aldrich, cat. N0636), 1X B-27 supplement (Thermo Fisher Scientific, cat. 17504044), 1X N-2 supplement (Thermo Fisher Scientific, cat. 17502048), 10 microM Y-27632 dihydrochloride (Tocris Bioscience, cat. 1254), and 50 ng/mL human EGF recombinant protein (Thermo Fisher Scientific, cat. PHG0311). The 485176-168-R4-J1-PDC line was cultured in Panc media, which includes all 6C/Colon 1B media components plus 100 ng/mL human FGF-10 (Thermo Fisher Scientific, cat. 100-26), 500 nM SB-431542 (Selleckchem, cat. S1067), and gastrin (Tocris, cat. 3006).
[…]
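Note: spheroids exposed to compounds for 7 days.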

COc1cccc2c1C(=O)c1c(O)c3c(c(O)c1C2=O)CC(O)(C(=O)CO)CC3OC1CC(N)C(O)C(C)O1 (configuration not stated) + Cc1cnc(CNC(=O)c2c(=O)c3ccc(N4CCCN(C)CC4)nc3n3c2sc2ccccc23)cn1
0.577 µM: IC50 (curve of first compound, second compound 3.16 µM)
< 0.0316 µM: IC50 (curve of first compound, second compound 10 µM)
inactive: viability, T/C (second compound 0.0316 µM, first compound 0.0316 µM) 105% | viability, T/C (second compound 0.0316 µM, first compound 0.1 µM) 85.3% | viability, T/C (second compound 0.0316 µM, first compound 0.316 µM) 63.1% | viability, T/C (second compound 0.0316 µM, first compound 1 µM) 81.8% | viability, T/C (second compound 0.0316 µM, first compound 3.16 µM) 71.5% | viability, T/C (second compound 0.0316 µM, first compound 10 µM) 59.9% | viability, T/C (second compound 0.1 µM, first compound 0.0316 µM) 108% | viability, T/C (second compound 0.1 µM, first compound 0.1 µM) 80.2% | viability, T/C (second compound 0.1 µM, first compound 0.316 µM) 91% | viability, T/C (second compound 0.1 µM, first compound 1 µM) 79.1% | viability, T/C (second compound 0.1 µM, first compound 3.16 µM) 67% | viability, T/C (second compound 0.1 µM, first compound 10 µM) 58.8% | viability, T/C (second compound 0.316 µM, first compound 0.0316 µM) 89.9% | viability, T/C (second compound 0.316 µM, first compound 0.1 µM) 51.9% | viability, T/C (second compound 0.316 µM, first compound 0.316 µM) 80.7% | viability, T/C (second compound 0.316 µM, first compound 1 µM) 44.4% | viability, T/C (second compound 0.316 µM, first compound 3.16 µM) 50.6% | viability, T/C (second compound 0.316 µM, first compound 10 µM) 74.3% | viability, T/C (second compound 1 µM, first compound 0.0316 µM) 82.2% | viability, T/C (second compound 1 µM, first compound 0.1 µM) 44.3% | viability, T/C (second compound 1 µM, first compound 0.316 µM) 88.7% | viability, T/C (second compound 1 µM, first compound 1 µM) 53.4% | viability, T/C (second compound 1 µM, first compound 3.16 µM) 47.7% | viability, T/C (second compound 1 µM, first compound 10 µM) 57.6% | viability, T/C (second compound 3.16 µM, first compound 0.0316 µM) 55.9% | viability, T/C (second compound 3.16 µM, first compound 0.1 µM) 61.1% | viability, T/C (second compound 3.16 µM, first compound 0.316 µM) 55% | viability, T/C (second compound 3.16 µM, first compound 1 µM) 33.6% | viability, T/C (second compound 3.16 µM, first compound 3.16 µM) 55.7% | viability, T/C (second compound 3.16 µM, first compound 10 µM) 47.1% | viability, T/C (second compound 10 µM, first compound 0.0316 µM) 36% | viability, T/C (second compound 10 µM, first compound 0.1 µM) 52.4% | viability, T/C (second compound 10 µM, first compound 0.316 µM) 43.9% | viability, T/C (second compound 10 µM, first compound 1 µM) 39.5% | viability, T/C (second compound 10 µM, first compound 3.16 µM) 41.4% | viability, T/C (second compound 10 µM, first compound 10 µM) 31.8%
> 10 µM: IC50 (curve of first compound, second compound 0.0316 µM) | IC50 (curve of first compound, second compound 0.1 µM) | IC50 (curve of first compound, second compound 0.316 µM) | IC50 (curve of first compound, second compound 1 µM)

COc1ccc([C@@H](O)c2cc(-c3ncnc4cc(N5CCOCC5)ccc34)c(F)cc2Cl)nn1
inactive: viability, T/C (compound 0.0316 µM) 103% and 120% and 90.1% | viability, T/C (compound 0.1 µM) 49.1% and 113% and 99.8% | viability, T/C (compound 0.316 µM) 76% and 95.2% and 69% | viability, T/C (compound 1 µM) 94% and 100% and 121% | viability, T/C (compound 3.16 µM) 82.1% and 102% and 73.5% | viability, T/C (compound 10 µM) 66.8% and 87.3% and 67.6%
> 10 µM: IC50 (curve of compound)

CC(=O)O[C@H]1C(=O)[C@@]2(C)[C@H]([C@H](OC(=O)c3ccccc3)[C@]3(O)C[C@H](OC(=O)[C@H](O)[C@@H](NC(=O)c4ccccc4)c4ccccc4)C(C)=C1C3(C)C)[C@]1(OC(C)=O)CO[C@@H]1C[C@@H]2O
> 10 µM: IC50 (curve of compound)
inactive: viability, T/C (compound 0.0316 µM) 83.9% and 107% and 108% | viability, T/C (compound 0.1 µM) 113% and 101% and 80.3% | viability, T/C (compound 0.316 µM) 93.4% and 80.2% and 97.1% | viability, T/C (compound 1 µM) 87% and 83.3% and 85.1% | viability, T/C (compound 3.16 µM) 89% and 82.4% and 95.4% | viability, T/C (compound 10 µM) 101% (2×) and 86.7%

COc1cccc2c1C(=O)c1c(O)c3c(c(O)c1C2=O)CC(O)(C(=O)CO)CC3OC1CC(N)C(O)C(C)O1 (configuration not stated)
> 10 µM and 5.66 µM: IC50 (curve of compound)
inactive: viability, T/C (compound 0.0316 µM) 72.4% and 79.2% and 88.8% | viability, T/C (compound 0.1 µM) 87.7% and 101% and 80.3% | viability, T/C (compound 0.316 µM) 96.6% and 91.6% and 71.9% | viability, T/C (compound 1 µM) 104% and 73.1% and 83.7% | viability, T/C (compound 3.16 µM) 68.2% and 95.1% and 53.9% | viability, T/C (compound 10 µM) 82.8% and 70.4% and 46.2%

C#Cc1c(F)ccc2cc(O)cc(-c3ncc4c(N5CC6CCC(C5)N6)nc(OCC56CCCN5CC(F)C6)nc4c3F)c12 (configuration not stated)
> 10 µM: IC50 (curve of compound)
inactive: viability, T/C (compound 0.0316 µM) 93.8% and 103% and 90.4% | viability, T/C (compound 0.1 µM) 101% and 86% and 69.8% | viability, T/C (compound 0.316 µM) 110% and 97.8% and 105% | viability, T/C (compound 1 µM) 83.9% and 94.1% and 98.5% | viability, T/C (compound 3.16 µM) 88.3% and 93.2% and 89% | viability, T/C (compound 10 µM) 86.6% and 71.6% and 81.2%

COc1ncnc(C2CC2)c1-c1ncc2cnn(Cc3ccc(-c4nc(C(F)(F)F)cn4C(C)C)cc3)c2n1
inactive: viability, T/C (compound 0.0316 µM) 104% and 85.1% | viability, T/C (compound 0.1 µM) 111% and 83.2% | viability, T/C (compound 0.316 µM) 101% and 92.7% | viability, T/C (compound 1 µM) 119% and 75.2% | viability, T/C (compound 3.16 µM) 95.7% and 89.8% | viability, T/C (compound 10 µM) 83.2% and 81.7%
> 10 µM: IC50 (curve of compound)
